Source: patent publication US8404677B2, “Kinase inhibitors” (Genosco, priority 2009, dated 2013)

Tests used:
[1] = system: SN4741 cells overexpressing LRRK2 G2019S; assay: Neuroprotection from LRRK2-mediated dopaminergic cell death (H2O2, crystal violet); assay type: cell-based, murine; settings: for Percent Cell Death: 100 μM hydrogen peroxide
Description: (§1) SN4741, a murine dopaminergic cell line were cultured in DMEM containing 10 FBS at 37° C., respectively. SN4741 cells (1.5×10^4/well) were seeded in 48 well plates 1 day before transient transfection with 1 μg of the pcDNA3.1 plasmids of either vector, LRRK wildtype cDNA, LRRK G2019S cDNA, by standard CaCl2 precipitation. Two days after transfection, cells were treated with 100 μM hydrogen peroxide for 1 day and cell viability was measured by crystal violet assay. For compound treatment, the test compounds were added at 0.05 μM, 0.5 μM and 5 μM and the cells were incubated for 1 hour prior to the addition of hydrogen peroxide.
(§2) SN4741 cells were transfected with plasmids containing the LRRK2 wild-type or G2019S and incubated them for 2 days followed by addition of 100 μM of hydrogen peroxide for 24 h to sensitize them to oxidative stress. Cell survival was assessed using the crystal violet.

[2] = system: SN4741 cells overexpressing LRRK2 wild-type; assay: as above; assay type: cell-based, murine; settings: for Percent Cell Death: LRRK2 WT, 100 μM hydrogen peroxide
Description: as §1, §2

[3] = system: SN4741 cells transfected with vector; assay: as above; assay type: cell-based, murine; settings: 100 μM hydrogen peroxide
Description: as §1, §2

[4] = system: SF-268; assay: cells; assay type: cell-based; settings: SF-268 (CNS Cancer)
[5] = molecular target: T1, truncated human FAK (Homo sapiens, UniProt Q05397); assay: Inhibition of enzymatic kinase activity (LANCE Ulight); assay type: biochemical; settings: at 1 μM concentration; read-out: FAK percentage inhibition
T1 construct: truncated human FAK, RET, FLT3, JAK2, and LRRK2 (CARNA BIOSCIENCES™); purchased Carna Biosciences

[6] = molecular target: T2, human ZAP70 (Homo sapiens, UniProt P43403); assay: as above; assay type: biochemical; settings: at 1 μM concentration; read-out: ZAP70 percentage inhibition
T2 construct: Purified full-length human SYK, ZAP70, PIM1, PYK2; purchased Carna Biosciences
T2 sequence (P43403 1-619): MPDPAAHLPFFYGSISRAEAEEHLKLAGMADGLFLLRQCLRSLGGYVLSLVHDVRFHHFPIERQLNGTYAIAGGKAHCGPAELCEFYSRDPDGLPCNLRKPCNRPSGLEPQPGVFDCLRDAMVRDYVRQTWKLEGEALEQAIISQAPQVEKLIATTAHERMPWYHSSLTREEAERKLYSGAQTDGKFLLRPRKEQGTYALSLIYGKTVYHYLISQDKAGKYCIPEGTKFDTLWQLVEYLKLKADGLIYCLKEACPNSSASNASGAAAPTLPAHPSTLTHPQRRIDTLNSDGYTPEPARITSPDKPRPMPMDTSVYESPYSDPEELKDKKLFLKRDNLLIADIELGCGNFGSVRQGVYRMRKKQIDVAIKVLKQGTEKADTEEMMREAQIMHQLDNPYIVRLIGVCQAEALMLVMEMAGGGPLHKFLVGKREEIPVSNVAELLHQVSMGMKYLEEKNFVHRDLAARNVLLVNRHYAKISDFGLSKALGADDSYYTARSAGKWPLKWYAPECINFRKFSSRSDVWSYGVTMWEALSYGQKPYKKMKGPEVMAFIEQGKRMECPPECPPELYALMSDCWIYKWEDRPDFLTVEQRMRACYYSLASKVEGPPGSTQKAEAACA

[7] = molecular target: T3, truncated human RET (Homo sapiens, UniProt P07949); assay: as above; assay type: biochemical
T3 construct: truncated human FAK, RET, FLT3, JAK2, and LRRK2 (CARNA BIOSCIENCES™); purchased Carna Biosciences
T3 sequence (P07949 658-1114 limits assumed): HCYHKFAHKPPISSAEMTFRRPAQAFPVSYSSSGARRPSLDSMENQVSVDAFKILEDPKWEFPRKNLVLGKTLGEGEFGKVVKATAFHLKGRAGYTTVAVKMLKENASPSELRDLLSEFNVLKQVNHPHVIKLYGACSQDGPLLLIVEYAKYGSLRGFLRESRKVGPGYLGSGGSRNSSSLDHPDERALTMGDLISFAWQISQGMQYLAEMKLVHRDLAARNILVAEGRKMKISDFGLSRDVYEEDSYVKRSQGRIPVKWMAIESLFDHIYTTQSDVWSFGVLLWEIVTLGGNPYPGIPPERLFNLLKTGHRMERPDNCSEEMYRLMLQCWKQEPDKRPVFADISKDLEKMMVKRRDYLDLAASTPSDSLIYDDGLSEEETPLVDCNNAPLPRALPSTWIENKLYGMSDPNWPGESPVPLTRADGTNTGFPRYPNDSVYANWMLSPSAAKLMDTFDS

[8] = molecular target: truncated human LRRK2 (Homo sapiens, UniProt Q5S007); assay: as above; assay type: biochemical
[9] = system: SK-MEL-28; assay: cells; assay type: cell-based; settings: SK-MEL-28 (Melanoma)
[10] = system: HOP-62; assay: cells; assay type: cell-based; settings: HOP-62 (NSCLC)
[11] = system: PC-3; assay: cells; assay type: cell-based; settings: PC-3 (Prostate Cancer)
[12] = Homo sapiens, read-out: LC50 (the source's name)

T1 sequence (Q05397 376-1052 limits assumed): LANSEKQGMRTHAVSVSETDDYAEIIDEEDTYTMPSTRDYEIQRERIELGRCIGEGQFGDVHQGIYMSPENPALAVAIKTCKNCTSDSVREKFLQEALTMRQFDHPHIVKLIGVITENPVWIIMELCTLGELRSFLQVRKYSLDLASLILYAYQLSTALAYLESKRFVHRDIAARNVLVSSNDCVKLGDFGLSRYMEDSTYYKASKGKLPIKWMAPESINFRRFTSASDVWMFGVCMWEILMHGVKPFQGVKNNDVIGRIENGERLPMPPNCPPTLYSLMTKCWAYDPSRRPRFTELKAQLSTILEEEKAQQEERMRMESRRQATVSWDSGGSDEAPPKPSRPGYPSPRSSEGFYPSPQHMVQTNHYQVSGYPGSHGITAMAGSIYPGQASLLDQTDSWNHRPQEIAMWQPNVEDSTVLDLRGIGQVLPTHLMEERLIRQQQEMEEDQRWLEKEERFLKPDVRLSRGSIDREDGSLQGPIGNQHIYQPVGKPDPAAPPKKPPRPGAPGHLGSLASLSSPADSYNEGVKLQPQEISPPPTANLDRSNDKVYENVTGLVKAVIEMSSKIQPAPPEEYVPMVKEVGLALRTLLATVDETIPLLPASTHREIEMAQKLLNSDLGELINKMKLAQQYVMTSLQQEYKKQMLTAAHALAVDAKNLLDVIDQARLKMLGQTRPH
truncated human LRRK2, sequence (Q5S007 1879-2138 limits assumed): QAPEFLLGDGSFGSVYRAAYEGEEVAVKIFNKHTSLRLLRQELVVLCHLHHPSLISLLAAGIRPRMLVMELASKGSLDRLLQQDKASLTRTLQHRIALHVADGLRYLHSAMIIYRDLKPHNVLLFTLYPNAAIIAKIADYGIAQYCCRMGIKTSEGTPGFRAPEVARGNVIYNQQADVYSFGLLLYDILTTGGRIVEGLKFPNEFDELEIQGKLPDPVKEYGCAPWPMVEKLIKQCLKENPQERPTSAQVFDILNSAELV

O=c1[nH]ccc2nc(N3CCC(O)CC3)nc(Nc3cccc(C(F)(F)F)c3)c12 [Compound 6, 2-(4-hydroxypiperidin-1-yl)-4-(3-(trifluoromethyl)phenylamino)pyrido[4,3-d]pyrimidine-5(6H)-one]
Percent Cell Death ([1]; 0.05 uM): 53.5% | Percent Cell Death ([1]; 0.5 uM): 56.9% | Percent Cell Death ([1]; 5 uM): 45.8% | protective effects against LRRK2-associated cell death ([1]; at 0.05 uM and higher, vs vector, DMSO or H2O2 controls): increased protective effects | Percent Cell Death ([2]; 0.05 uM): 62.2% | Percent Cell Death ([2]; 0.5 uM): 62.2% | Percent Cell Death ([2]; 5 uM): 49.7% | protective effects against LRRK2-associated cell death ([2]; LRRK2 wild-type, at 0.05 uM and higher, vs vector, DMSO or H2O2 controls): increased protective effects | Percent Cell Death ([3]; 0.05 uM): 54.2% | Percent Cell Death ([3]; 0.5 uM): 57.5% | Percent Cell Death ([3]; 5 uM): 42.5% | GI50 ([4]; Homo sapiens): 3.09 µM | IC50 ([4]; Homo sapiens): 12.9 µM | CC50 [4, 12]: 100 µM | TGI [4]: 35.5 µM | inhibition at 1 µM [5]: 78% | inhibition at 1 µM [6]: 49% | IC50 [7]: 0.0942 µM | IC50 [8]: 0.054 µM | GI50 ([9]; Homo sapiens): 4.68 µM | IC50 ([9]; Homo sapiens): 11 µM | CC50 [9, 12]: 50.1 µM | TGI [9]: 17.4 µM | TGI [10]: 18.6 µM | GI50 ([10]; Homo sapiens): 4.37 µM | IC50 ([10]; Homo sapiens): 8.91 µM | CC50 [10, 12]: 79.4 µM | GI50 ([11]; Homo sapiens): 2.29 µM | IC50 ([11]; Homo sapiens): 4.68 µM | CC50 [11, 12]: 93.3 µM | TGI [11]: 12.9 µM
